Tested on: fl-2CS1 (DNA, aptamer) GAGAGGTCAGATGATGCACTAGGGTTACGAGACCACGCGGTACCCTATGCGTGCTAC
Test: ITC
Details: none added; 0.1 M Tris-HCl pH 7.4, 1% DMSO, 25 °C; 125 μM toxin in syringe, 5 μM aptamer in cell

Row | SMILES | binding
1 | CCCC[C@@H](C)[C@@H](OC(=O)C[C@@H](CC(=O)O)C(=O)O)[C@H](C[C@@H](C)C[C@H](O)CCCC[C@@H](O)C[C@H](O)[C@H](C)N)OC(=O)C[C@@H](CC(=O)O)C(=O)O | no
2 | C[C@@H]1Cc2c(Cl)cc(C(=O)N[C@@H](Cc3ccccc3)C(=O)O)c(O)c2C(=O)O1 | no
